Experimental data published in US20230414472A1, “COSMETIC COMPOSITION INCLUDING GARLIC EXTRACT, BLACK TEA EXTRACT, AND GUAVA EXTRACT” (COSMAX INC., priority 2022, published 2023).

Legend:
[1] = target: T1, SNARE complex (SNAP-25, syntaxin 1a, VAMP-2) (Homo sapiens, UniProt P60880+P63027+Q16623); experiment: Inhibitory effect on membrane fusion (SNARE liposome fusion, fluorescence intensity); format: biochemical; conditions: 100 μM myricetin; FIG. 1
T1 construct: GST (inferred from purification on glutathione agarose beads); made in house; host or cells: E. coli
T1 sequence (P60880 whole entry, the tested form may be a part): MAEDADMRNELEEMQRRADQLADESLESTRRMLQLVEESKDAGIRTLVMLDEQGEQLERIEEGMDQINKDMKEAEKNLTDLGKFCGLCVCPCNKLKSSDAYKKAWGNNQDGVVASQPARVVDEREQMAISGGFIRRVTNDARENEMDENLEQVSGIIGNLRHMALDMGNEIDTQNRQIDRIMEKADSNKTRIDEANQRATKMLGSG
T1 sequence (Q16623 whole entry, the tested form may be a part): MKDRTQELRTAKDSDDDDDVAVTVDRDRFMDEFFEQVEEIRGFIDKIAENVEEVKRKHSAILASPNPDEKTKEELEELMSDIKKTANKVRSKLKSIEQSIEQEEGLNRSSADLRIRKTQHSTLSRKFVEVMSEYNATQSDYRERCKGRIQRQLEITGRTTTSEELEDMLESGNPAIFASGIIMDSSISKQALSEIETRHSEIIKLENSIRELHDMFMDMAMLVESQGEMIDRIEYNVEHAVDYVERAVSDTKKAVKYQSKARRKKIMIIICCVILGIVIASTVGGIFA
T1 sequence (P63027 whole entry, the tested form may be a part): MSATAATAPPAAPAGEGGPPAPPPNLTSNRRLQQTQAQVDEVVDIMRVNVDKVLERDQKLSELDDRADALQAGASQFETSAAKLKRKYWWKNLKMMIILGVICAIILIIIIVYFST
Protocol: The inhibitory effect of the composition according to an embodiment on the membrane fusion was confirmed. Also, since myricetin was predicted as an active ingredient, the inhibitory effect of 100 μM of myricetin (Sigma-Aldrich) on the membrane fusion was also confirmed.
First, a soluble nethylmaleimide-sensitive factor attachment protein (SNAP) receptor protein was overexpressed in transformed E. coli, and then the expressed protein was selectively purified and obtained by using glutathione agarose beads. Then, […] (POPC, 62 mol %), 1,2-dioleoyl-sn-glycero-3-phosphatidylserine (DOPS, 35 mol %), 1,2-dioleoyl-sn-glycero-3-phosphoserine-N-(7-nitro-2-1,3-benzoxadiazol-4-yl) (NBD-PS, 1.5 mol %), and a fluorescent material, rhodamine (rhodamin-PE, 1.5 mol %) were mixed to prepare a 10 mM fluorescent substance-labeled liposome (v-vesicle). Meanwhile, DOPS and POPC were mixed to a molar concentration of 35:65 to prepare a 50 mM liposome (t-vesicle) that is not labeled with a fluorescent substance. Then, purified synaptosomal-associated protein, SNAP-25, and syntaxin 1a were mixed at a molar concentration of 1:1 and allowed for a reaction for 1 hour at room temperature, followed by mixing with the liposome that is not labeled with a fluorescent substance at a molar ratio of 100:1. […]
Then, the fluorescence intensity thereof was measured.

[2] = test system: acetylcholine release in human skin tissue; experiment: Acetylcholine release in human skin explant (choline/acetylcholine assay kit); format: cell-based; conditions: 10 μL sample every day for 3 days, FIG. 4
[3] = test system: VAMP2; experiment: VAMP2 level in human skin explant (fluorescence staining); format: cell-based; conditions: 10 μL sample at set concentrations, cultured 72 hours, FIG. 3

O=c1c(O)c(-c2cc(O)c(O)c(O)c2)oc2cc(O)cc(O)c12 [myricetin]
membrane fusion rate [1]: most significantly reduced
amount of acetylcholine released in the skin tissue [2]: significantly reduced
VAMP2 level in the skin tissue [3]: significantly reduced
